Here are results for eleven compounds from publication PMC4319993 (Nature, 2014).

One test concerns R. palustris LCC (RpLCC). Description: coupled ATPase assay. The class given is biochemical, Rhodopseudomonas palustris. To be noted: 1.5 mM ATP, 40 mM KHCO3, 10 mM MgCl2, 200 mM KCl, 100 mM Hepes pH 7.5; 0.25 uM enzyme.
Test [1] concerns the target Mycobacterium avium subspecies paratuberculosis long-chain acyl-CoA carboxylase (Mycobacterium avium subspecies paratuberculosis). Kind of test: crystal structure.
The target is the same in test [2]. Description: SEC. On the technique in general: SEC sorts molecules by how far they enter the pores of the column.
Test [3] shares this target. Description: crystal structure. This is another data set of the same source.
Test [4] concerns the target Rhodopseudomonas palustris long-chain acyl-CoA carboxylase (Rhodopseudomonas palustris). Description: SEC.

Usually Km stands for the substrate concentration at which the rate is half of its maximum. In the case of `CC(=O)SCCNC(=O)CCNC(=O)[C@H](O)C(C)(C)COP(=O)(O)OP(=O)(O)OC[C@H]1O[C@@H](n2cnc3c(N)ncnc32)[C@H](O)[C@@H]1OP(=O)(O)O` [Acetyl-CoA], the Km in the test on R. palustris LCC (RpLCC) was 2000 ± 300 µM.

In the case of `CCCC(=O)SCCNC(=O)CCNC(=O)[C@H](O)C(C)(C)COP(=O)(O)OP(=O)(O)OC[C@H]1O[C@@H](n2cnc3c(N)ncnc32)[C@H](O)[C@@H]1OP(=O)(O)O` [Butyryl-CoA], the Michaelis-Menten constant (Km) in the test with R. palustris LCC (RpLCC) was 820 ± 160 µM. For the compound `CCCCCCCCCC(=O)SCCNC(=O)CCNC(=O)[C@H](O)C(C)(C)COP(=O)(O)OP(=O)(O)OC[C@H]1O[C@@H](n2cnc3c(N)ncnc32)[C@H](O)[C@@H]1OP(=O)(O)O` [Decanoyl-CoA], the Km in the test with R. palustris LCC (RpLCC) stood at 33 ± 5 µM. `CCCCCC(=O)SCCNC(=O)CCNC(=O)[C@H](O)C(C)(C)COP(=O)(O)OP(=O)(O)OC[C@H]1O[C@@H](n2cnc3c(N)ncnc32)[C@H](O)[C@@H]1OP(=O)(O)O` [Hexanoyl-CoA]: the Km in the test with R. palustris LCC (RpLCC) is 200 ± 40 µM. Regarding `CCCCCCCCCCCC(=O)SCCNC(=O)CCNC(=O)[C@H](O)C(C)(C)COP(=O)(O)OP(=O)(O)OC[C@H]1O[C@@H](n2cnc3c(N)ncnc32)[C@H](O)[C@@H]1OP(=O)(O)O` [Lauroyl-CoA], the Km with R. palustris LCC (RpLCC) stood at 19 ± 3 µM. Turning to `CCCCCCCCCCCCCC(=O)SCCNC(=O)CCNC(=O)[C@H](O)C(C)(C)COP(=O)(O)OP(=O)(O)OC[C@H]1O[C@@H](n2cnc3c(N)ncnc32)[C@H](O)[C@@H]1OP(=O)(O)O` [Myristoyl-CoA], the Km with R. palustris LCC (RpLCC) was 26 ± 2 µM.

As for `CCCCCCCC(=O)SCCNC(=O)CCNC(=O)[C@H](O)C(C)(C)COP(=O)(O)OP(=O)(O)OC[C@H]1O[C@@H](n2cnc3c(N)ncnc32)[C@H](O)[C@@H]1OP(=O)(O)O` [Octanoyl-CoA], in the test on R. palustris LCC (RpLCC), the Km turned out to be 370 ± 60 µM. On to `CCCCCCCCCCCCCCCC(=O)SCCNC(=O)CCNC(=O)[C@H](O)C(C)(C)COP(=O)(O)OP(=O)(O)OC[C@H]1O[C@@H](n2cnc3c(N)ncnc32)[C@H](O)[C@@H]1OP(=O)(O)O` [Palmitoyl-CoA], for which the Km in the test with R. palustris LCC (RpLCC) came to 5.8 ± 0.5 µM. Turning to `CCC(=O)SCCNC(=O)CCNC(=O)[C@H](O)C(C)(C)COP(=O)(O)OP(=O)(O)OC[C@H]1O[C@@H](n2cnc3c(N)ncnc32)[C@H](O)[C@@H]1OP(=O)(O)O` [Propionyl-CoA], the Km in the test with R. palustris LCC (RpLCC) turned out to be 2200 ± 500 µM.

By stoichiometry N is commonly meant a count of units in the complex or per binding partner. As for “Mycobacterium avium subspecies paratuberculosis long-chain acyl-CoA carboxylase (enzyme)”, the stoichiometry N in test [1], in test [2] and in test [3] was 6 throughout. Turning to “Rhodopseudomonas palustris long-chain acyl-CoA carboxylase (enzyme)”, the stoichiometry N in test [4] was found to be 6.
